Source: PubChem BioAssay (NCI)
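Where inhibition never reached the appropriate level, the endpoint shown equals the highest concentration tested. Otherwise, values were interpolated linearly from a five-concentration, 48-hour dose response in 96-well plates. The concentration for full growth arrest is given as TGI.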

Experiments:
Assay in all cases: growth of human tumour cells (NCI), 48 h
786-0 renal = system: 786-0 renal
A498 renal = system: A498 renal
A549 NSCLC = system: A549 NSCLC
ACHN renal = system: ACHN renal
CAKI-1 renal = system: CAKI-1 renal
CCRF-CEM leukemia = system: CCRF-CEM leukemia
COLO 205 colon = system: COLO 205 colon
DLD-1 colon = system: DLD-1 colon
DMS 114 small cell lung = system: DMS 114 small cell lung
DMS 273 small cell lung = system: DMS 273 small cell lung
EKVX NSCLC = system: EKVX NSCLC
HCC-2998 colon = system: HCC-2998 colon
HCT-116 colon = system: HCT-116 colon
HCT-15 colon = system: HCT-15 colon
HL-60(TB) leukemia = system: HL-60(TB) leukemia
HOP-18 NSCLC = system: HOP-18 NSCLC
HOP-62 NSCLC = system: HOP-62 NSCLC
HOP-92 NSCLC = system: HOP-92 NSCLC
HT29 colon = system: HT29 colon
IGROV1 ovarian = system: IGROV1 ovarian
K-562 leukemia = system: K-562 leukemia
KM12 colon = system: KM12 colon
KM20L2 colon = system: KM20L2 colon
LOX IMVI melanoma = system: LOX IMVI melanoma
LXFL 529 NSCLC = system: LXFL 529 NSCLC
M14 melanoma = system: M14 melanoma
M19-MEL melanoma = system: M19-MEL melanoma
MALME-3M melanoma = system: MALME-3M melanoma
MOLT-4 leukemia = system: MOLT-4 leukemia
NCI-H226 lung = system: NCI-H226 lung
NCI-H23 lung = system: NCI-H23 lung
NCI-H460 lung = system: NCI-H460 lung
NCI-H522 lung = system: NCI-H522 lung
OVCAR-3 ovarian = system: OVCAR-3 ovarian
OVCAR-4 ovarian = system: OVCAR-4 ovarian
OVCAR-5 ovarian = system: OVCAR-5 ovarian
OVCAR-8 ovarian = system: OVCAR-8 ovarian
RPMI-8226 leukemia = system: RPMI-8226 leukemia
RXF 393 renal = system: RXF 393 renal
RXF-631 renal = system: RXF-631 renal
SF-268 CNS = system: SF-268 CNS
SF-295 CNS = system: SF-295 CNS
SF-539 CNS = system: SF-539 CNS
SK-MEL-2 melanoma = system: SK-MEL-2 melanoma
SK-MEL-28 melanoma = system: SK-MEL-28 melanoma
SK-MEL-5 melanoma = system: SK-MEL-5 melanoma
SK-OV-3 ovarian = system: SK-OV-3 ovarian
SN12C renal = system: SN12C renal
SNB-19 CNS = system: SNB-19 CNS
SNB-75 CNS = system: SNB-75 CNS
SNB-78 CNS = system: SNB-78 CNS
SR leukemia = system: SR leukemia
SW-620 colon = system: SW-620 colon
TK-10 renal = system: TK-10 renal
U251 CNS = system: U251 CNS
UACC-257 melanoma = system: UACC-257 melanoma
UACC-62 melanoma = system: UACC-62 melanoma
UO-31 renal = system: UO-31 renal
XF 498 CNS = system: XF 498 CNS

## CCCCCCCCCC1CC(=O)Oc2cccc(O)c21 (configuration not stated)
786-0 renal
  TGI: 30.6 µM
A498 renal
  TGI: 42 µM
A549 NSCLC
  TGI: 83.4 µM
ACHN renal
  TGI: > 84.8 µM
CAKI-1 renal
  TGI: 76.3 µM
CCRF-CEM leukemia
  TGI: 77.1 µM
COLO 205 colon
  TGI: 31.3 µM
DLD-1 colon
  TGI: > 71 µM
DMS 114 small cell lung
  TGI: 45.7 µM
DMS 273 small cell lung
  TGI: 19.3 µM
EKVX NSCLC
  TGI: > 84.6 µM
HCC-2998 colon
  TGI: > 20.2 µM
HCT-116 colon
  TGI: > 100 µM
HCT-15 colon
  TGI: 57.1 µM
HL-60(TB) leukemia
  TGI: 62 µM
HOP-18 NSCLC
  TGI: 97.3 µM
HOP-62 NSCLC
  TGI: 80.9 µM
HOP-92 NSCLC
  TGI: > 70.3 µM
HT29 colon
  TGI: 53.8 µM
IGROV1 ovarian
  TGI: 55.2 µM
K-562 leukemia
  TGI: 66.3 µM
KM12 colon
  TGI: 39.1 µM
KM20L2 colon
  TGI: > 100 µM
LOX IMVI melanoma
  TGI: 35.6 µM
LXFL 529 NSCLC
  TGI: 63.2 µM
M14 melanoma
  TGI: 49.6 µM
M19-MEL melanoma
  TGI: > 96.7 µM
MALME-3M melanoma
  TGI: 38.1 µM
MOLT-4 leukemia
  TGI: > 85.3 µM
NCI-H226 lung
  TGI: 99.5 µM
NCI-H23 lung
  TGI: 84.2 µM
NCI-H460 lung
  TGI: 30.7 µM
NCI-H522 lung
  TGI: 45.3 µM
OVCAR-3 ovarian
  TGI: 24.9 µM
OVCAR-4 ovarian
  TGI: > 78.3 µM
OVCAR-5 ovarian
  TGI: > 85.4 µM
OVCAR-8 ovarian
  TGI: > 81.2 µM
RPMI-8226 leukemia
  TGI: 83.4 µM
RXF 393 renal
  TGI: 46.6 µM
RXF-631 renal
  TGI: 20.2 µM
SF-268 CNS
  TGI: > 100 µM
SF-295 CNS
  TGI: > 83.3 µM
SF-539 CNS
  TGI: 71.7 µM
SK-MEL-2 melanoma
  TGI: > 72.7 µM
SK-MEL-28 melanoma
  TGI: > 70.9 µM
SK-MEL-5 melanoma
  TGI: 35.2 µM
SK-OV-3 ovarian
  TGI: > 92.2 µM
SN12C renal
  TGI: 15.7 µM
SNB-19 CNS
  TGI: > 88.2 µM
SNB-75 CNS
  TGI: > 100 µM
SNB-78 CNS
  TGI: > 100 µM
SR leukemia
  TGI: 64.2 µM
SW-620 colon
  TGI: > 69.4 µM
TK-10 renal
  TGI: > 100 µM
U251 CNS
  TGI: 25.4 µM
UACC-257 melanoma
  TGI: > 100 µM
UACC-62 melanoma
  TGI: 98.3 µM
UO-31 renal
  TGI: 75.1 µM
XF 498 CNS
  TGI: 49.7 µM

## CCOC(OC1=CCCC1)C(C)[Se]c1ccccc1 (configuration not stated)
786-0 renal
  TGI: 41.8 µM
A498 renal
  TGI: > 100 µM
A549 NSCLC
  TGI: > 100 µM
ACHN renal
  TGI: > 100 µM
CAKI-1 renal
  TGI: > 100 µM
CCRF-CEM leukemia
  TGI: 46.6 µM
COLO 205 colon
  TGI: 39.9 µM
DLD-1 colon
  TGI: 48.4 µM
DMS 114 small cell lung
  TGI: 20.4 µM
DMS 273 small cell lung
  TGI: 31.3 µM
EKVX NSCLC
  TGI: > 100 µM
HCC-2998 colon
  TGI: > 100 µM
HCT-116 colon
  TGI: 45.1 µM
HCT-15 colon
  TGI: 32 µM
HL-60(TB) leukemia
  TGI: 42.9 µM
HOP-18 NSCLC
  TGI: > 100 µM
HOP-62 NSCLC
  TGI: > 100 µM
HOP-92 NSCLC
  TGI: 81.4 µM
HT29 colon
  TGI: 44.4 µM
IGROV1 ovarian
  TGI: > 100 µM
K-562 leukemia
  TGI: > 100 µM
KM12 colon
  TGI: > 100 µM
KM20L2 colon
  TGI: 79.6 µM
LOX IMVI melanoma
  TGI: 28.9 µM
LXFL 529 NSCLC
  TGI: > 100 µM
M14 melanoma
  TGI: > 100 µM
M19-MEL melanoma
  TGI: 66.3 µM
MALME-3M melanoma
  TGI: 88.4 µM
MOLT-4 leukemia
  TGI: 64.6 µM
NCI-H226 lung
  TGI: > 100 µM
NCI-H23 lung
  TGI: 62.3 µM
NCI-H460 lung
  TGI: 40.1 µM
NCI-H522 lung
  TGI: 35.9 µM
OVCAR-3 ovarian
  TGI: > 100 µM
OVCAR-4 ovarian
  TGI: > 100 µM
OVCAR-5 ovarian
  TGI: 60.6 µM
OVCAR-8 ovarian
  TGI: > 100 µM
RPMI-8226 leukemia
  TGI: 43.7 µM
RXF 393 renal
  TGI: 72.8 µM
RXF-631 renal
  TGI: 41.4 µM
SF-268 CNS
  TGI: 59 µM
SF-295 CNS
  TGI: > 100 µM
SF-539 CNS
  TGI: 71.7 µM
SK-MEL-2 melanoma
  TGI: > 100 µM
SK-MEL-28 melanoma
  TGI: > 100 µM
SK-MEL-5 melanoma
  TGI: 52.4 µM
SK-OV-3 ovarian
  TGI: > 100 µM
SN12C renal
  TGI: > 100 µM
SNB-19 CNS
  TGI: > 100 µM
SNB-75 CNS
  TGI: 90.4 µM
SNB-78 CNS
  TGI: > 100 µM
SR leukemia
  TGI: 41.2 µM
TK-10 renal
  TGI: > 100 µM
U251 CNS
  TGI: 83 µM
UACC-257 melanoma
  TGI: > 100 µM
UACC-62 melanoma
  TGI: > 100 µM
UO-31 renal
  TGI: > 100 µM
XF 498 CNS
  TGI: 45.1 µM
